One assay deals with H2073. In words: IC50 assay, NSCLC cell lines (Cell Titer Glo, total ATP). The format is cell-based, human. The method, then: (§1) Cells were plated at ˜15% confluence in a media comprising 5% concentration of fetal bovine serum supplemented with RPMI, which included 2 mM L-Glutamine in a 96 well dish. […] Following three days of incubation in a 5% CO2 incubator, the total ATP in each well was quantified using Cell Titer Glo (Promega). […] The solid lines represent the medians.

A further assay has as its system H650. Described as above. The format is cell-based, human. To be noted: U2AF1 WT (listed twice). The method, then: as §1
In a further assay the test system is HCT-116 cells. In words: Cell viability assay (CellTiter-Glo). It is filed as cell-based, human. To be noted: Homo sapiens, read-out: concentration required to reduce the viability by 50% (IC50); parental HCT-116 cells. The method, then:
The identity for all human cell lines in this study was confirmed by short tandem repeat (STR) analysis. In addition, all human cell lines were confirmed to be mycoplasma free using a PCR based assay (Genatlantis). HCT-116 cells (ATCC) were grown in DMEM medium with 10% FBS and 2 mM L-glutamine. Lenti-X 293T cells (Clontech) were cultured in DMEM medium with 10% FBS and 2 mM L-glutamine. H1155 cells (a gift from Adi Gazdar and John Minna, UT Southwestern) were cultured in RPMI media with 5% FBS and 2 mM L-glutamine. SF9 cells (a gift from Hongtao Yu, UT Southwestern) were cultured in SF900 II serum free media (Life Technologies).
(§2) 12-point dose responses were performed on 96-well assay plates with cell plating (1500-4000 cell per well) on day 1, compound addition on day 2, and survival measurement on day 5. Compounds were diluted in DMSO before adding to the cells. Final DMSO concentration was 0.5%. Cell survival assay was performed using CellTiter-Glo Luminescent Cell Viability Assay kit (Promega) that measures cellular ATP content. Luminescence was recorded by EnVison multimode plate reader (Perkin Elmer). IC50 was determined with GraphPad Prism using baseline correction (by normalizing to DMSO control), the asymmetric (five parameter) equation and least squares fit.

For assay [1], the system named is indisulam resistant HCT-116 clones. Put plainly: Cell viability assay, indisulam resistant clones. The format is cell-based, human. The method, then: The methods for generating a population of barcoded HCT-116 cells were described before (20). […] Clones that appeared after the selection was then expanded and barcode genotyped to identify six clones with unique barcodes. […] Source data for exome sequencing data is available under NCBI SRA accession SRP068238. Bortezomib resistant clones were isolated by selection with 5 nM bortezomib, and MLN4924 resistant clones with 40 nM MLN4924.
as §2

The next assay deals with RBM39 mRNA. Put plainly: qPCR quantification of RBM39 mRNA. It is filed as cell-based, human. As to conditions: HCT-116 cells after indisulam treatment. The method, then: RNAs isolated from indisulam or siRNA treated cells were first treated with Turbo DNase (Life Technologies) to remove contaminating genomic DNA. After RNA cleanup with Quick-RNA MiniPrep kit (Zymo Research), 500 ng of total RNAs was converted into cDNAs with Multiscribe reverse transcriptase (Life Technologies). Exon skipping in TRIM27 was visualized by PCR amplification with 5′-[…]-3′ (SEQ ID NO: 3) and 5′-[…]-3′ (SEQ ID NO: 4) from cDNAs. […] Relative RNA levels were calculated based on 2^−ct method using Cyclophilin mRNA for normalization. The following primers were used for quantification of mRNA levels: […]
For measurement of RBM39 mRNA levels, the following primers were used: […]

Assay [2] relates to DCAF15-3xFLAG and mutant RBM39Δ150 (M265L, E271Q, P272S). Put plainly: RBM39Δ150 pulldown assay, mutant RBM39. As to conditions: at concentrations as high as 10 μM. It is filed as binding, human. The method, then:
RBM39 lacking the first 150 amino acids after the start codon (RBM39Δ150) was cloned into the pFastBac1 (Life Technologies) vector. Site-directed Mutagenesis of RBM39 was performed using Q5 site-directed mutagenesis kit (NEB). DCAF15-GST (C-terminal GST tag) and DDB1 were also cloned into pFastBac1. The production of baculovirus was carried out following vendor's instructions. Protein was expressed in SF9 cells by infection with each protein specific baculovirus, and cells were harvested 48 hr later and frozen in liquid nitrogen. For purification of RBM39Δ150, frozen cells were pulverized by cryomill and resuspended in lysis buffer (40 mM Tris, pH 7.5, 225 mM NaCl, 1× […] Protease inhibitor). The lysate was passed through a 22 gauge needle 2 times followed by ultracentrifugation at 25000 rpm for 30 min. Clarified lysate was incubated with Ni-NTA agarose (Qiagen) for 30 min with rotation at 4° C. Resin and bound protein were washed with wash buffer 1 (40 mM Tris, pH 7.5, 225 mM NaCl) followed by wash buffer 2 (40 mM Tris, pH 7.5, 20 mM imidazole, 225 mM NaCl). Proteins were eluted with elution buffer (40 mM Tris, pH 7.5, 300 mM imidazole, 225 mM NaCl) and concentrated to 0.5 ml. Concentrated proteins were then fractionated on Superdex 200 Increase 10/300 GL (GE Healthcare). […]

Consider one compound from patent US20180140578A1, “METHODS AND COMPOSITIONS FOR THE DIAGNOSIS AND SELECTIVE TREATMENT OF CANCER” (Board of Regents of the University of Texas System, priority 2016, published 2018).

Each structure is given as a SMILES string. Like-named read-outs stand apart in the source and are kept apart here.

On to `NS(=O)(=O)c1ccc(S(=O)(=O)Nc2cccc3c(Cl)c[nH]c23)cc1` [Indisulam, indisulam], for which the IC50 is 2.57 µM with H2073 (Homo sapiens, NCI-H2073, read-out: Indisulam IC50 (log 10) (converted), U2AF1 WT); 2.57 µM in the assay on H2073 (read-out: Indisulam IC50, U2AF1 WT); 13.6 µM in the assay on H650 (Homo sapiens, NCI-H650, read-out: Indisulam IC50 (log 10), H650 (converted)); 13.6 µM in the assay with H650 (Homo sapiens, NCI-H650, read-out: Indisulam IC50, H650); 14.5 µM with H650 (read-out: Indisulam IC50, H650); 0.56 µM in the assay on HCT-116 cells. Moreover, the IC50 in assay [1] (Homo sapiens, HCT-116) turned out to be 9.3 µM. For the same compound, the “Indisulam IC50 (log 10)” value with H650 (H650) was −4.839 (log 10) (M). Moreover, the “sensitivity of indisulam resistant clones” value in assay [1] (five of six clones, concentrations as high as 50) is on record as “insensitive”. For the same compound, the “times less sensitive than the parental HCT-116 cells” value in assay [1] (sixth indisulam resistant clone) is 17 times. Besides, in the assay on RBM39 mRNA, the “RBM39 mRNA” value was “no dose dependent decrease”. In assay [2], the “recruitment of M265L or E271Q variants of RBM39Δ150 to DCAF15” value is recorded as “failed to recruit”.
